Values of other authors, collected in patent US10918652B2, “Compositions for the treatment of dermatological diseases and disorders” (CLARIDEI LABORATORIES, INC., priority 2014, dated 2021).

Conditions: cited from Ramachandran et al. 2006

For O=C(O)[C@H](O)[C@@H](O)[C@H](O)[C@H](O)CO [Gluconic acid], the pKa is given as 3.7.
